Patent US11426494B2, “Stents having biodegradable layers” (MT Acquisition Holdings LLC, priority 2007, dated 2022)

Key:
[1] = drug elution from DES coating; format: physicochemical; conditions: heparin+taxol in DES coating, FIG. 9, preliminary data
[2] = rapamycin degradation in DES coating (peak area ratio, control vs Micell processed); format: physicochemical; conditions: Micell processed materials vs control samples, FIG. 6

Compound: CC(=O)O[C@H]1C(=O)[C@@]2(C)[C@H]([C@H](OC(=O)c3ccccc3)[C@]3(O)C[C@H](OC(=O)[C@H](O)[C@@H](NC(=O)c4ccccc4)c4ccccc4)C(C)=C1C3(C)C)[C@]1(OC(C)=O)CO[C@@H]1C[C@@H]2O [taxol]
- primary drug (taxol) elution profile on addition of a 2nd drug (heparin) [1]: not affecting primary drug (taxol) elution profile

Compound: CO[C@H]1C[C@@H]2CC[C@@H](C)[C@@](O)(O2)C(=O)C(=O)N2CCCC[C@H]2C(=O)O[C@H]([C@H](C)C[C@@H]2CC[C@@H](O)[C@H](OC)C2)CC(=O)[C@H](C)/C=C(\C)[C@@H](O)[C@@H](OC)C(=O)[C@H](C)C[C@H](C)/C=C/C=C/C=C/1C [rapamycin]
- rate of rapamycin degradation (peak area ratio) [2]: no difference in the rate of rapamycin degradation

Compound: heparin
- heparin elution continuing [1]: > 15 days
